This passage reports GI50 and TGI results from PubChem BioAssay (NCI).

Molecules are shown by their SMILES.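 Each compound was tested at five concentrations against cells in 96-well plates for 48 hours. Here, GI50 denotes the concentration required for 50% inhibition of growth. TGI marks complete inhibition of growth.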 Bounds are passed on as bounds.

Holding throughout (test): DTP human tumour cell line panel, 48 h
Assay [1] has as its system PC-3 prostate.
For assay [2], the system named is NCI-H522 lung.
Assay [3] has as its system OVCAR-3 ovarian.
The subject of assay [4] is SN12C renal.
The subject of assay [5] is SK-OV-3 ovarian.
The test system of assay [6] is OVCAR-8 ovarian.
The subject of assay [7] is MOLT-4 leukemia.
Assay [8] has as its system OVCAR-4 ovarian.
Assay [9] deals with TK-10 renal.
In assay [10] the test system is MDA-MB-435.

The GI50 is the concentration giving 50% growth inhibition. The TGI is the concentration at which net growth stops. Higher therefore signals lower sensitivity of the cells.

With `CCOC(=O)N1C/C(=C/c2ccc(OC)cc2)C(=O)/C(=C/c2ccc(OC)cc2)C1`, the GI50 in [1] is 2.53 µM; in assay [2] it was 2.91 µM; in assay [3], 2.75 µM; in assay [4], 1.91 µM; in assay [5], 3.63 µM; in assay [6] it was 3.49 µM. Also, the GI50 in assay [7] was 3.99 µM; in [8] it was 2.77 µM; in [9], 2.91 µM; in assay [10] it was 1.19 µM. Besides, the concentration for total growth inhibition (TGI) in [1] was 8.61 µM; in assay [2], 11.1 µM; in [3], 7.81 µM; in assay [4], 4.23 µM; in assay [5], 16.6 µM; in assay [6], 14.6 µM. In addition, the TGI in assay [7] is more than 100 µM; in [8], more than 31 µM; in assay [9], 8.58 µM; in [10] it was 4.71 µM.

For the molecule `CCCCN(CCCC)CC(C)(C)C(O)c1ccc(OC)c2ccccc12` (stereo not given), the GI50 in assay [1] is 2.88 µM; in assay [2], 4.18 µM; in assay [3], 2.84 µM; in assay [4], 4.54 µM; in assay [5] it was 5.29 µM; in assay [6], 9.76 µM. For the same molecule, the GI50 in assay [7] is 2.68 µM; in [8], 0.385 µM; in assay [9] it was 8.02 µM; in assay [10] it was 5.05 µM. Moreover, the concentration for total growth inhibition (TGI) in [1] turned out to be 13.7 µM; in [2] it was 18.5 µM; in assay [3] it was 13.9 µM; in [4], 20.6 µM; in [5], 28.7 µM; in assay [6], 28.8 µM. Besides, the concentration for total growth inhibition (TGI) in assay [7] was determined as 11.7 µM; in [8], 23.5 µM; in [9], 24.3 µM; in assay [10], 28.6 µM.

In the case of `C=C1C(=O)O[C@H]2[C@H]1[C@H](OC(=O)/C(C)=C\C)C[C@]1(CO1)[C@@H]1[C@H](OC(C)=O)C=C(C)[C@]21O`, the concentration for total growth inhibition (TGI) in [1] is more than 58.8 µM; in assay [2] it was 16.8 µM; in [3], 32.1 µM; in assay [4], 30.2 µM; in [5] it was more than 100 µM; in [6], more than 100 µM. The total growth inhibition concentration (TGI) in assay [7] was 25.6 µM; in assay [8], more than 100 µM; in assay [9], 23.1 µM; in [10], 42.4 µM.

For `C=CC[Se]C(=O)Cc1c(C)n(C(=O)c2ccc(Cl)cc2)c2ccc(OC)cc12`, the GI50 in [1] is 1.26 µM; in [2] it was 1.97 µM; in assay [3], 1.78 µM; in [4], 1.68 µM; in assay [5], 1.63 µM; in assay [6] it was 1.84 µM. Further, the GI50 was 2.87 µM in [7], 1.69 µM in [8], 1.75 µM in [9] and 2.71 µM in assay [10]. Also, the TGI in assay [1] came out at 2.8 µM; in [2] it was 4.63 µM; in assay [3] it was 3.24 µM; in assay [4], 3.05 µM; in assay [5] it was 3.1 µM; in assay [6], 3.68 µM. The TGI in assay [7] is 8.72 µM; in [8], 3.07 µM; in assay [9], 3.19 µM; in [10], 8.44 µM.

Regarding `O=C1C(Cl)=C(Nc2cccc(C(F)(F)F)c2)C(=O)N1Cc1ccccc1Cl`, the GI50 is 4.72 µM in assay [1]; 0.49 µM in [2]; 4.33 µM in assay [3]; 3.96 µM in assay [4]; 20.3 µM in assay [5]; 2.71 µM in assay [6]. In addition, the GI50 was 2.56 µM in [7], 6.58 µM in [8], 14 µM in assay [9] and 2.49 µM in assay [10]. The concentration for total growth inhibition (TGI) amounted to 18.2 µM in assay [1]; 19.8 µM in assay [2]; 24.8 µM in assay [3]; 16.8 µM in assay [4]; 39.8 µM in assay [5]; 20.9 µM in [6]. Also, the TGI in [7] came to 8.53 µM; in assay [8], 26.5 µM; in assay [9] it was 37.5 µM; in assay [10], 12.2 µM.

For `O=C(O)c1ccc(-c2ccc(C(=O)O)cc2I)c(I)c1`, the GI50 in assay [1], in assay [2], in [3], in assay [4], in assay [5] and in assay [6] was more than 100 µM each time. The GI50 in [7], in [8], in assay [9] and in assay [10] was more than 100 µM throughout. Further, the TGI in assay [1], in [2], in [3], in assay [4], in assay [5] and in assay [6] was more than 100 µM in each case. Also, the total growth inhibition concentration (TGI) in assay [7], in assay [8], in [9] and in [10] was more than 100 µM throughout.
